In paper PMC11963564 (Antimicrobial Agents and Chemotherapy, 2025):

Assays:
3CL^pro mutant F140A = type: biochemical, SARS-CoV-2
[1] = tested on: SARS-CoV-2 Omicron variant B.1.1.529; conditions: cited from earlier work

simnotrelvir
IC50 fold change to WT (3CL^pro mutant F140A): 21.9 fold | IC50 [1]: 43 nM
